Earlier results on four molecules are cited in patent US20240315956A1, “METHOD OF PRODUCTION OF THE COMPOSITION OF CYCLOOXYGENASE-2 (COX-2) INHIBITORS” (US NANO FOOD & DRUG INC, priority 2021, published 2024).

One may read the pKa as the pH at which an ionisable group is half protonated.

For `Cc1ccc(-c2cc(C(F)(F)F)nn2-c2ccc(S(N)(=O)=O)cc2)cc1` [Celecoxib], the solubility in water entry was “practically insoluble in water”.
Turning to `CCCN1CC(c2ccc(S(C)(=O)=O)cc2)=C(c2ccc(C)cc2)C1=O` [Imrecoxib], the solubility in water entry is on record as “practically insoluble in water”.
As to `CCC1(C)CC(=O)NC1=O` (stereo not shown) [ethosuximide], the pKa was 10.73.
`Nc1nnc(-c2cccc(Cl)c2Cl)c(N)n1` [lamotrigine]: the pKa is reported as 15.
